Laboratory results as given in patent US20160168140A1, “HETEROCYCLIC COMPOUNDS AS ANTIBIOTIC POTENTIATORS” (priority 2014, published 2016).
Read-outs that look alike come from different tables or passages of the source.

Assays:
Format in all cases: cell-based
[1] = test system: Acinetobacter baumannii (Ab23); test: MIC shift assay of antibiotics (broth microdilution); conditions: for Colistin MIC Shift: A. baumannii (MDR Ab), compd. concentration 4.0 μM, colistin MIC 0.5-1.0 μg/mL; for Colistin & Cmpd MIC shift / Colistin MIC with compound: compound at 10 μM; for colistin MIC shift, Ab23 at (compd concentration): fold shift of colistin MIC, nc = no changeover or no shift
Procedure, shortened: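 Broth microdilution MIC shift assay against Acinetobacter baumannii. Overnight cultures in cation-adjusted Mueller Hinton broth at 37° C. were sub-cultured 1:200, grown to OD600=0.5 to 0.8, diluted to OD600=0.01, and added (50 μL) to wells holding 50 μL of 2× antibiotic stocks for a starting OD600 of 0.005. After 18 to 20 h at 37° C. with shaking, OD600 was read to obtain MICs.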

E. coli = test: as above; conditions: for Colistin MIC Shift: E. coli (SCR1), compd. concentration 4.0 μM, colistin MIC 0.5-1.0 μg/mL; for MIC, agent alone / Colistin & Cmpd MIC shift / Colistin MIC with compound: Escherichia coli ATCC 25922 (MMX 102), QC, Colistin-S; for Colistin & Cmpd MIC shift / Colistin MIC with compound: compound at 10 μM
Method: (§1) Minimum inhibitory concentration (MIC) shift assays were performed to determine if the test compounds could alter the MIC of existing antibacterial drugs (e.g., ciprofloxacin and colistin) for E. coli, Acinetobacter baumannii, Klebsiella pneumoniae, Pseudomonas aeruginosa, and Enterobacter cloacae. The MIC shift assay is based on the standard broth microdilution MIC determination protocol of Wiegand et al, Nat Protoc. 3(2):163-75 (2008), with slight modifications that allow for the screening of up to seven test compounds in a single plate.
(§2) On the day before an assay, bacteria were grown overnight in cation-adjusted Mueller Hinton broth (CAMHB; Teknova, Hollister, Calif.) at 37° C. in an orbital shaker and sub-cultured at a 1:200 dilution the following morning. The cells were grown to OD600=0.5 to 0.8 and then diluted to OD600=0.01. From a serial dilution of each antibiotic at (50 μL of 2× concentrated stock solutions) several concentrations were added to the wells of a sterile, transparent round-bottom 96-well plate (Phenix Research Products, Candler, N.C.), and diluted cells (50 μL) were added to the plates for a starting OD600 of 0.005. Then, a test compound (2.5 μL) was added to each well to give a final concentration of 4 or 10 μM. A row of wells lacking test compound but containing the antibiotic was used to determine the MIC of that antibiotic alone. A column of wells lacking both antibiotic and test compound served as a growth control, and an additional column containing only CAMHB was included as a sterile blank control.
(§3) The plates were incubated for 18 to 20 h at 37° C. in an orbital shaker, and the cell density (OD600) was determined the following day in a microplate reader (PolarStar Optima, BMG Labtech). The MIC shift was determined by comparing the MIC of the antibiotic alone to the MIC of the antibiotic plus test compound.

Klebsiella pneumoniae = test: as above; conditions: for Colistin & Cmpd MIC shift / Colistin MIC with compound: compound at 10 μM
Method: as §1, §2, §3

Pseudomonas aeruginosa = test: as above; conditions: for Colistin & Cmpd MIC shift / Colistin MIC with compound: compound at 10 μM
Method: as §1, §2, §3

Serratia marcescens = test: Colistin MIC / MIC shift with compound at 10 μM (isolate panel, Table 19); conditions: Serratia marcescens 6147, Colistin-R; for Colistin & Cmpd MIC shift / Colistin MIC with compound: compound at 10 μM
Providencia stuartii = test: as above; conditions: Providencia stuartii 6644, Colistin-R; for Colistin & Cmpd MIC shift / Colistin MIC with compound: compound at 10 μM
Proteus vulgaris = test: as above; conditions: Proteus vulgaris 6240, Colistin-R; for Colistin & Cmpd MIC shift / Colistin MIC with compound: compound at 10 μM
Burkholderia cepacia = test: as above; conditions: Burkholderia cepacia 547, Colistin-R; for Colistin & Cmpd MIC shift / Colistin MIC with compound: compound at 10 μM
Staphylococcus aureus = test: as above; conditions: for Colistin & Cmpd MIC shift / Colistin MIC with compound: compound at 10 μM
[2] = Acinetobacter baumannii ATCC 19606 (MMX 1630), Colistin-S
[3] = Acinetobacter baumannii Ab23, Colistin-R
[4] = Klebsiella pneumoniae 2237, Colistin-R
[5] = Klebsiella pneumoniae ATCC 13883 (MMX 214), Colistin-S
[6] = Pseudomonas aeruginosa 1582, Colistin-I
[7] = Pseudomonas aeruginosa 6977, Colistin-R
[8] = Pseudomonas aeruginosa ATCC 27853 (MMX 103), QC, Colistin-S
[9] = Staphylococcus aureus ATCC 43300 (MMX 5999), MRSA

Cc1cccc2c(NCCCN(C)C)nc(-c3cc(-c4ccccc4)cc(C(F)(F)F)c3)nc12 [compound 343]
Colistin MIC Shift [1]: 8x | MIC, agent alone [1, 2]: 16 µg/mL | Colistin & Cmpd MIC shift [1, 2]: 17 | Colistin MIC with compound [1, 2]: 0.015 µg/mL | MIC, agent alone [1, 3]: 8 µg/mL | Colistin & Cmpd MIC shift [1, 3]: 4267 | Colistin MIC with compound [1, 3]: 0.015 µg/mL | colistin MIC shift, Ab23 at (compd concentration) ([1]; compound concentration 2 μM): 8-16x | Colistin MIC Shift (E. coli): 16x | MIC, agent alone (E. coli): > 32 µg/mL | Colistin & Cmpd MIC shift (E. coli): 8 | Colistin MIC with compound (E. coli): 0.015 µg/mL | MIC, agent alone (Klebsiella pneumoniae; [4]): > 32 µg/mL | Colistin & Cmpd MIC shift (Klebsiella pneumoniae; [4]): 128 | Colistin MIC with compound (Klebsiella pneumoniae; [4]): 0.25 µg/mL | MIC, agent alone (Klebsiella pneumoniae; [5]): > 32 µg/mL | Colistin & Cmpd MIC shift (Klebsiella pneumoniae; [5]): 8 | Colistin MIC with compound (Klebsiella pneumoniae; [5]): 0.015 µg/mL | MIC, agent alone (Pseudomonas aeruginosa; [6]): > 32 µg/mL | Colistin & Cmpd MIC shift (Pseudomonas aeruginosa; [6]): 2 | Colistin MIC with compound (Pseudomonas aeruginosa; [6]): 0.5 µg/mL | MIC, agent alone (Pseudomonas aeruginosa; [7]): > 32 µg/mL | Colistin & Cmpd MIC shift (Pseudomonas aeruginosa; [7]): 64 | Colistin MIC with compound (Pseudomonas aeruginosa; [7]): 1 µg/mL | MIC, agent alone (Pseudomonas aeruginosa; [8]): > 32 µg/mL | Colistin & Cmpd MIC shift (Pseudomonas aeruginosa; [8]): 4 | Colistin MIC with compound (Pseudomonas aeruginosa; [8]): 0.06 µg/mL | MIC, agent alone (Serratia marcescens): > 32 µg/mL | Colistin & Cmpd MIC shift (Serratia marcescens): 256 | Colistin MIC with compound (Serratia marcescens): 0.25 µg/mL | MIC, agent alone (Providencia stuartii): > 32 µg/mL | Colistin & Cmpd MIC shift (Providencia stuartii): 4 | Colistin MIC with compound (Providencia stuartii): > 16 µg/mL | MIC, agent alone (Proteus vulgaris): > 32 µg/mL | Colistin & Cmpd MIC shift (Proteus vulgaris): 4 | Colistin MIC with compound (Proteus vulgaris): > 16 µg/mL | MIC, agent alone (Burkholderia cepacia): > 32 µg/mL | Colistin & Cmpd MIC shift (Burkholderia cepacia): 4 | Colistin MIC with compound (Burkholderia cepacia): > 16 µg/mL | MIC, agent alone (Staphylococcus aureus): 1 µg/mL | MIC, agent alone (Staphylococcus aureus; [9]): 1 µg/mL | Colistin & Cmpd MIC shift (Staphylococcus aureus; [9]): 4267 | Colistin MIC with compound (Staphylococcus aureus; [9]): ≤ 0.015 µg/mL | Colistin & Cmpd MIC shift (Staphylococcus aureus): 4267 | Colistin MIC with compound (Staphylococcus aureus): ≤ 0.015 µg/mL

Clc1ccc2[nH]cc(-c3ccc(Cl)c(Cl)c3)c2c1 [compound 429]
Colistin MIC Shift [1]: 2x | MIC, agent alone [1, 2]: > 32 µg/mL | Colistin & Cmpd MIC shift [1, 2]: 8 | Colistin MIC with compound [1, 2]: 0.03 µg/mL | MIC, agent alone [1, 3]: > 32 µg/mL | Colistin & Cmpd MIC shift [1, 3]: 2133 | Colistin MIC with compound [1, 3]: 0.03 µg/mL | MIC Shift of Ciprofloxacin ([1]; Compd. No. 429 concentration 8 μM, antibiotic Ciprofloxacin, A. baumannii (Ab23)): ≧32x | MIC Shift of Levofloxacin ([1]; Compd. No. 429 concentration 8 μM, antibiotic Levofloxacin, A. baumannii (Ab23)): ≧64x | MIC Shift of Meropenem ([1]; Compd. No. 429 concentration 8 μM, antibiotic Meropenem, A. baumannii (Ab23)): ≧16x | MIC Shift of Tobramycin ([1]; Compd. No. 429 concentration 8 μM, antibiotic Tobramycin, A. baumannii (Ab23)): ≧16x | colistin MIC shift, Ab23 at (compd concentration) ([1]; compound concentration 1 μM): 4x (1 μM); | colistin MIC shift, Ab23 at (compd concentration) ([1]; compound concentration 2 μM): ≧16x (2μM) | Colistin MIC Shift (E. coli): 4x | MIC, agent alone (E. coli): > 32 µg/mL | Colistin & Cmpd MIC shift (E. coli): 8 | Colistin MIC with compound (E. coli): 0.015 µg/mL | MIC, agent alone (Klebsiella pneumoniae; [4]): > 32 µg/mL | Colistin & Cmpd MIC shift (Klebsiella pneumoniae; [4]): 128 | Colistin MIC with compound (Klebsiella pneumoniae; [4]): 0.25 µg/mL | MIC, agent alone (Klebsiella pneumoniae; [5]): > 32 µg/mL | Colistin & Cmpd MIC shift (Klebsiella pneumoniae; [5]): 4 | Colistin MIC with compound (Klebsiella pneumoniae; [5]): 0.03 µg/mL | MIC, agent alone (Pseudomonas aeruginosa; [6]): > 32 µg/mL | Colistin & Cmpd MIC shift (Pseudomonas aeruginosa; [6]): 16 | Colistin MIC with compound (Pseudomonas aeruginosa; [6]): 0.25 µg/mL | MIC, agent alone (Pseudomonas aeruginosa; [7]): > 32 µg/mL | Colistin & Cmpd MIC shift (Pseudomonas aeruginosa; [7]): 64 | Colistin MIC with compound (Pseudomonas aeruginosa; [7]): 1 µg/mL | MIC, agent alone (Pseudomonas aeruginosa; [8]): > 32 µg/mL | Colistin & Cmpd MIC shift (Pseudomonas aeruginosa; [8]): 2 | Colistin MIC with compound (Pseudomonas aeruginosa; [8]): 0.12 µg/mL | MIC, agent alone (Serratia marcescens): > 32 µg/mL | Colistin & Cmpd MIC shift (Serratia marcescens): 256 | Colistin MIC with compound (Serratia marcescens): 0.25 µg/mL | MIC, agent alone (Providencia stuartii): > 32 µg/mL | Colistin & Cmpd MIC shift (Providencia stuartii): 4 | Colistin MIC with compound (Providencia stuartii): 16 µg/mL | MIC, agent alone (Proteus vulgaris): > 32 µg/mL | Colistin & Cmpd MIC shift (Proteus vulgaris): 1067 | Colistin MIC with compound (Proteus vulgaris): 0.06 µg/mL | MIC, agent alone (Burkholderia cepacia): > 32 µg/mL | Colistin & Cmpd MIC shift (Burkholderia cepacia): 4 | Colistin MIC with compound (Burkholderia cepacia): > 16 µg/mL | MIC, agent alone (Staphylococcus aureus): 2 µg/mL | MIC, agent alone (Staphylococcus aureus; [9]): 2 µg/mL | Colistin & Cmpd MIC shift (Staphylococcus aureus; [9]): 4267 | Colistin MIC with compound (Staphylococcus aureus; [9]): ≤ 0.015 µg/mL | Colistin & Cmpd MIC shift (Staphylococcus aureus): 4267 | Colistin MIC with compound (Staphylococcus aureus): ≤ 0.015 µg/mL
